# Laboratory results as given in the supplement of paper PMC10307832.
# How the values were obtained:
# Assay in all cases: relative viability (nuclei count vs DMSO), 5 days (fraction); higher = more cells survive
# NCI-H2009 = tested on: NCI-H2009
# Procedure, shortened: (§1)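 Five library-drug doses in √10 steps were combined with a fixed anchor-drug dose, or a single drug was given alone, by pin tool to lung cancer cell lines in 1536-well plates the day after seeding. Nuclei were stained and counted after 5 days. Relative viability is the nuclei count in treated wells over that in vehicle wells, taken as the median of duplicate plates.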
# HOP-62 = tested on: HOP-62
# Procedure, shortened: as §1
# NCI-H1395 = tested on: NCI-H1395
# Procedure, shortened: as §1
# NCI-H1975 = tested on: NCI-H1975
# Procedure, shortened: as §1
# NCI-H1437 = tested on: NCI-H1437
# Procedure, shortened: as §1
# EMC-BAC-2 = tested on: EMC-BAC-2
# Procedure, shortened: as §1
# CAL-12T = tested on: CAL-12T
# Procedure, shortened: as §1
# NCI-H522 = tested on: NCI-H522
# Procedure, shortened: as §1
# NCI-H1915 = tested on: NCI-H1915
# Procedure, shortened: as §1
# NCI-H2228 = tested on: NCI-H2228
# Procedure, shortened: as §1
# NCI-H460 = tested on: NCI-H460
# Procedure, shortened: as §1
# COR-L 105 = tested on: COR-L 105
# Procedure, shortened: as §1
# SK-LU-1 = tested on: SK-LU-1
# Procedure, shortened: as §1
# NCI-H23 = tested on: NCI-H23
# Procedure, shortened: as §1
# HCC-827 = tested on: HCC-827
# Procedure, shortened: as §1
# NCI-H1792 = tested on: NCI-H1792
# Procedure, shortened: as §1
# NCI-H1755 = tested on: NCI-H1755
# Procedure, shortened: as §1
# HARA = tested on: HARA
# Procedure, shortened: as §1
# A-427 = tested on: A-427
# Procedure, shortened: as §1
# LCLC-103H = tested on: LCLC-103H
# Procedure, shortened: as §1
# SW 1573 = tested on: SW 1573
# Procedure, shortened: as §1
# HCC-366 = tested on: HCC-366
# Procedure, shortened: as §1
# NCI-H1355 = tested on: NCI-H1355
# Procedure, shortened: as §1
# NCI-H727 = tested on: NCI-H727
# Procedure, shortened: as §1
compound,measurement,setting,value
CC(C)Oc1cc(Nc2nc(N[C@@H](C)c3ccc(F)cn3)ncc2Cl)n[nH]1 [AZ23] + CC(=O)Nc1cccc(-n2c(=O)n(C3CC3)c(=O)c3c(Nc4ccc(I)cc4F)n(C)c(=O)c(C)c32)c1 [Trametinib] (partner 0.02 µM),relative viability,NCI-H2009; first compound 0.01 µM,0.257
same,relative viability,NCI-H2009; first compound 0.03162 µM,0.243
same,relative viability,NCI-H2009; first compound 0.3162 µM,0.284
same,relative viability,HOP-62; first compound 0.01 µM,0.377
same,relative viability,HOP-62; first compound 0.03162 µM,0.382
same,relative viability,HOP-62; first compound 0.3162 µM,0.356
same,relative viability,NCI-H1395; first compound 0.03162 µM,1.06
same,relative viability,NCI-H1395; first compound 0.3162 µM,1.06
same,relative viability,NCI-H1975; first compound 0.01 µM,0.387
same,relative viability,NCI-H1975; first compound 0.03162 µM,0.495
same,relative viability,NCI-H1975; first compound 0.3162 µM,0.302
same,relative viability,NCI-H1437; first compound 0.01 µM,0.503
same,relative viability,NCI-H1437; first compound 0.03162 µM,0.512
same,relative viability,NCI-H1437; first compound 0.3162 µM,0.651
same,relative viability,EMC-BAC-2; first compound 0.01 µM,0.911
same,relative viability,EMC-BAC-2; first compound 0.03162 µM,0.912
same,relative viability,EMC-BAC-2; first compound 0.3162 µM,0.898
same,relative viability,CAL-12T; first compound 0.03162 µM,0.28
same,relative viability,CAL-12T; first compound 0.3162 µM,0.368
same,relative viability,NCI-H522; first compound 0.01 µM,0.894
same,relative viability,NCI-H522; first compound 0.03162 µM,0.796
same,relative viability,NCI-H522; first compound 0.3162 µM,0.617
same,relative viability,NCI-H1915; first compound 0.01 µM,0.303
same,relative viability,NCI-H1915; first compound 0.03162 µM,0.297
same,relative viability,NCI-H1915; first compound 0.3162 µM,0.239
same,relative viability,NCI-H2228; first compound 0.01 µM,0.523
same,relative viability,NCI-H2228; first compound 0.03162 µM,0.631
same,relative viability,NCI-H2228; first compound 0.3162 µM,0.401
same,relative viability,NCI-H460; first compound 0.01 µM,0.119
same,relative viability,NCI-H460; first compound 0.03162 µM,0.128
same,relative viability,NCI-H460; first compound 0.3162 µM,0.166
same,relative viability,COR-L 105; first compound 0.01 µM,0.432
same,relative viability,COR-L 105; first compound 0.03162 µM,0.371
same,relative viability,COR-L 105; first compound 0.3162 µM,0.478
same,relative viability,SK-LU-1; first compound 0.03162 µM,0.509
same,relative viability,SK-LU-1; first compound 0.3162 µM,0.474
same,relative viability,NCI-H23; first compound 0.03162 µM,0.364
same,relative viability,NCI-H23; first compound 0.3162 µM,0.361
same,relative viability,HCC-827; first compound 0.01 µM,0.456
same,relative viability,HCC-827; first compound 0.03162 µM,0.563
same,relative viability,HCC-827; first compound 0.3162 µM,0.557
same,relative viability,NCI-H1792; first compound 0.01 µM,0.472
same,relative viability,NCI-H1792; first compound 0.03162 µM,0.347
same,relative viability,NCI-H1792; first compound 0.3162 µM,0.294
same,relative viability,NCI-H1755; first compound 0.01 µM,0.828
same,relative viability,NCI-H1755; first compound 0.03162 µM,0.774
same,relative viability,NCI-H1755; first compound 0.3162 µM,0.708
same,relative viability,HARA; first compound 0.01 µM,0.666
same,relative viability,HARA; first compound 0.03162 µM,0.886
same,relative viability,HARA; first compound 0.3162 µM,0.399
same,relative viability,A-427; first compound 0.01 µM,0.569
same,relative viability,A-427; first compound 0.03162 µM,0.717
same,relative viability,A-427; first compound 0.3162 µM,0.684
same,relative viability,LCLC-103H; first compound 0.01 µM,0.741
same,relative viability,LCLC-103H; first compound 0.03162 µM,0.7
same,relative viability,LCLC-103H; first compound 0.3162 µM,0.655
same,relative viability,SW 1573; first compound 0.01 µM,0.693
same,relative viability,SW 1573; first compound 0.03162 µM,0.604
same,relative viability,SW 1573; first compound 0.3162 µM,0.458
same,relative viability,HCC-366; first compound 0.01 µM,0.334
same,relative viability,HCC-366; first compound 0.03162 µM,0.399
same,relative viability,HCC-366; first compound 0.3162 µM,0.33
same,relative viability,NCI-H1355; first compound 0.01 µM,0.359
same,relative viability,NCI-H1355; first compound 0.03162 µM,0.417
same,relative viability,NCI-H1355; first compound 0.3162 µM,0.353
same,relative viability,NCI-H727; first compound 0.01 µM,0.365
same,relative viability,NCI-H727; first compound 0.03162 µM,0.36
same,relative viability,NCI-H727; first compound 0.3162 µM,0.389
CC(C)Oc1cc(Nc2nc(N[C@@H](C)c3ccc(F)cn3)ncc2Cl)n[nH]1 [AZ23] + CC(=O)c1c(C)c2cnc(Nc3ccc(N4CCNCC4)cn3)nc2n(C2CCCC2)c1=O [Palbociclib] (partner 0.5 µM),relative viability,NCI-H2009; first compound 0.01 µM,0.2
same,relative viability,NCI-H2009; first compound 0.03162 µM,0.185
same,relative viability,NCI-H2009; first compound 0.3162 µM,0.196
same,relative viability,HOP-62; first compound 0.01 µM,0.507
same,relative viability,HOP-62; first compound 0.03162 µM,0.467
same,relative viability,HOP-62; first compound 0.3162 µM,0.437
same,relative viability,NCI-H1395; first compound 0.03162 µM,0.694
same,relative viability,NCI-H1395; first compound 0.3162 µM,0.641
same,relative viability,NCI-H1975; first compound 0.01 µM,0.534
same,relative viability,NCI-H1975; first compound 0.03162 µM,0.703
same,relative viability,NCI-H1975; first compound 0.3162 µM,0.591
same,relative viability,NCI-H1437; first compound 0.01 µM,0.304
same,relative viability,NCI-H1437; first compound 0.03162 µM,0.324
same,relative viability,NCI-H1437; first compound 0.3162 µM,0.335
same,relative viability,EMC-BAC-2; first compound 0.01 µM,0.527
same,relative viability,EMC-BAC-2; first compound 0.03162 µM,0.523
same,relative viability,EMC-BAC-2; first compound 0.3162 µM,0.52
same,relative viability,CAL-12T; first compound 0.03162 µM,0.285
same,relative viability,CAL-12T; first compound 0.3162 µM,0.414
same,relative viability,NCI-H522; first compound 0.01 µM,1.2
same,relative viability,NCI-H522; first compound 0.03162 µM,1.01
same,relative viability,NCI-H522; first compound 0.3162 µM,0.795
same,relative viability,NCI-H1915; first compound 0.01 µM,0.571
same,relative viability,NCI-H1915; first compound 0.03162 µM,0.492
same,relative viability,NCI-H1915; first compound 0.3162 µM,0.5
same,relative viability,NCI-H2228; first compound 0.01 µM,0.809
same,relative viability,NCI-H2228; first compound 0.03162 µM,0.811
same,relative viability,NCI-H2228; first compound 0.3162 µM,0.907
same,relative viability,NCI-H460; first compound 0.01 µM,0.0638
same,relative viability,NCI-H460; first compound 0.03162 µM,0.146
same,relative viability,NCI-H460; first compound 0.3162 µM,0.127
same,relative viability,COR-L 105; first compound 0.01 µM,0.53
same,relative viability,COR-L 105; first compound 0.03162 µM,0.463
same,relative viability,COR-L 105; first compound 0.3162 µM,0.396
same,relative viability,SK-LU-1; first compound 0.03162 µM,0.416
same,relative viability,SK-LU-1; first compound 0.3162 µM,0.414
same,relative viability,NCI-H23; first compound 0.03162 µM,0.548
same,relative viability,NCI-H23; first compound 0.3162 µM,0.512
same,relative viability,HCC-827; first compound 0.01 µM,0.47
same,relative viability,HCC-827; first compound 0.03162 µM,0.535
same,relative viability,HCC-827; first compound 0.3162 µM,0.471
same,relative viability,NCI-H1792; first compound 0.01 µM,0.737
same,relative viability,NCI-H1792; first compound 0.03162 µM,0.617
same,relative viability,NCI-H1792; first compound 0.3162 µM,0.645
same,relative viability,NCI-H1755; first compound 0.01 µM,0.472
same,relative viability,NCI-H1755; first compound 0.03162 µM,0.488
same,relative viability,NCI-H1755; first compound 0.3162 µM,0.49
same,relative viability,HARA; first compound 0.01 µM,0.254
same,relative viability,HARA; first compound 0.03162 µM,0.156
same,relative viability,HARA; first compound 0.3162 µM,0.213
same,relative viability,A-427; first compound 0.01 µM,0.459
same,relative viability,A-427; first compound 0.03162 µM,0.524
same,relative viability,A-427; first compound 0.3162 µM,0.586
same,relative viability,LCLC-103H; first compound 0.01 µM,0.485
same,relative viability,LCLC-103H; first compound 0.03162 µM,0.421
same,relative viability,LCLC-103H; first compound 0.3162 µM,0.503
same,relative viability,SW 1573; first compound 0.01 µM,0.58
same,relative viability,SW 1573; first compound 0.03162 µM,0.467
same,relative viability,SW 1573; first compound 0.3162 µM,0.394
same,relative viability,HCC-366; first compound 0.01 µM,0.303
same,relative viability,HCC-366; first compound 0.03162 µM,0.513
same,relative viability,HCC-366; first compound 0.3162 µM,0.458
same,relative viability,NCI-H1355; first compound 0.01 µM,0.437
same,relative viability,NCI-H1355; first compound 0.03162 µM,0.455
same,relative viability,NCI-H1355; first compound 0.3162 µM,0.375
same,relative viability,NCI-H727; first compound 0.01 µM,0.59
same,relative viability,NCI-H727; first compound 0.03162 µM,0.66
same,relative viability,NCI-H727; first compound 0.3162 µM,0.619
